Measured values reported in US11090319B2, “Therapeutic uses of pharmaceutical compositions comprising cyclic boronic acid ester derivatives” (Melinta Subsidiary Corp., priority 2010, dated 2021).
Like-named read-outs stand apart in the source and are kept apart here.

How the values were obtained:
Experiment in all cases: biochemical
Type in all cases: biochemical
[1] = target: various β-lactamases (bacterial lysates) (Klebsiella pneumoniae, UniProt Q9F663); conditions: aztreonam cleavage
[2] = target: various β-lactamases (bacterial lysates) (Pseudomonas aeruginosa, UniProt P14489); conditions: AZT IC50 KP1007 OXA-10
[3] = target: various β-lactamases (bacterial lysates) (Salmonella typhimurium, UniProt P0A1V8); conditions: AZT IC50 KPX1001 OXA-2
[4] = target: various β-lactamases (bacterial lysates) (Klebsiella pneumoniae, UniProt Q9F663, H272Y)
[5] = target: various β-lactamases (bacterial lysates) (Escherichia coli, UniProt A0A649V088); conditions: read-out: AZT IC50 KP1005 CTX-M-14
[6] = target: various β-lactamases (bacterial lysates) (Escherichia coli, UniProt A0A5R8T042); conditions: read-out: AZT IC50 KP1009 CTX-M-15
[7] = lysate KP1004 KPC-2, read-out: AZT IC50 KP1004 KPC-2 (converted)
[8] = lysate KP1008 KPC-2, read-out: AZT IC50 KP1008 KPC-2

Chain of various β-lactamases (bacterial lysates) (Pseudomonas aeruginosa, UniProt P14489) (P14489 20-266): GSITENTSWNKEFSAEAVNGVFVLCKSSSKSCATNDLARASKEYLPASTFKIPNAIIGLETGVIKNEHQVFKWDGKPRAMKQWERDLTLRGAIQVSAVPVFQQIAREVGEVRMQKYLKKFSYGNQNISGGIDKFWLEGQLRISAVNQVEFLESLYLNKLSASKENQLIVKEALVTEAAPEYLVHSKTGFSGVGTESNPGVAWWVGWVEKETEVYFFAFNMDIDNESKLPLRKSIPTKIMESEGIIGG
Chain of various β-lactamases (bacterial lysates) (Klebsiella pneumoniae, UniProt Q9F663, H272Y) (Q9F663 whole entry H272Y, looked up): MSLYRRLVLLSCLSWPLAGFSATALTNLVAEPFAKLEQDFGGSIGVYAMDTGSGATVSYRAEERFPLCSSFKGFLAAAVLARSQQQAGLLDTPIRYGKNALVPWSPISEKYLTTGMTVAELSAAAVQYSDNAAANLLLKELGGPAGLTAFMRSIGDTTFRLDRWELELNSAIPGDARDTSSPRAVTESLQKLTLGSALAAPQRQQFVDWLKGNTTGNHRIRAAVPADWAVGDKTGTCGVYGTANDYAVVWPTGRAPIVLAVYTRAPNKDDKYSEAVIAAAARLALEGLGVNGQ
Chain of various β-lactamases (bacterial lysates) (Salmonella typhimurium, UniProt P0A1V8) (P0A1V8 22-275): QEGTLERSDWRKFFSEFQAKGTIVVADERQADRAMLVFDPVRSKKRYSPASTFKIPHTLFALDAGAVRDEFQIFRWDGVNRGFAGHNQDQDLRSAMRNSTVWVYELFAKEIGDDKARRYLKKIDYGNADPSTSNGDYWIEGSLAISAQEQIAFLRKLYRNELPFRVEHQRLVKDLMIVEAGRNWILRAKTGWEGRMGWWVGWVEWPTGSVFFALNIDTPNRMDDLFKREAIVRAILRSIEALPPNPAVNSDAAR
Chain of various β-lactamases (bacterial lysates) (Klebsiella pneumoniae, UniProt Q9F663) (Q9F663 whole entry, looked up): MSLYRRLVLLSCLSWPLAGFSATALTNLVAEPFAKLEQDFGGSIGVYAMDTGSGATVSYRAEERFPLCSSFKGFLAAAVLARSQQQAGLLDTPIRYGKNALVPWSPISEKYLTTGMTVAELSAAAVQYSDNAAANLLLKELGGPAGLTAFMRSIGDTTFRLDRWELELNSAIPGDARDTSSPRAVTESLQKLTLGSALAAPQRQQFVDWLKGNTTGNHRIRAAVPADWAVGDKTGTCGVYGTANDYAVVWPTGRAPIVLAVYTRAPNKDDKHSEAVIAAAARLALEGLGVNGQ
Chain of various β-lactamases (bacterial lysates) (Escherichia coli, UniProt A0A5R8T042) (A0A5R8T042 29-291): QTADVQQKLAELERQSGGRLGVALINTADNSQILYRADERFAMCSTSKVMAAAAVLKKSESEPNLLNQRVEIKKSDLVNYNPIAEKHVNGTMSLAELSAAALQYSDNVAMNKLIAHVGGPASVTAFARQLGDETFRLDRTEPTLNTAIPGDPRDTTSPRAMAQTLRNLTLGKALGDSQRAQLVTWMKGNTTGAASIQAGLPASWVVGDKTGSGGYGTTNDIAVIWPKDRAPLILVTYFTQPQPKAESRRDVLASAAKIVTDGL
Chain of various β-lactamases (bacterial lysates) (Escherichia coli, UniProt A0A649V088) (A0A649V088 29-291): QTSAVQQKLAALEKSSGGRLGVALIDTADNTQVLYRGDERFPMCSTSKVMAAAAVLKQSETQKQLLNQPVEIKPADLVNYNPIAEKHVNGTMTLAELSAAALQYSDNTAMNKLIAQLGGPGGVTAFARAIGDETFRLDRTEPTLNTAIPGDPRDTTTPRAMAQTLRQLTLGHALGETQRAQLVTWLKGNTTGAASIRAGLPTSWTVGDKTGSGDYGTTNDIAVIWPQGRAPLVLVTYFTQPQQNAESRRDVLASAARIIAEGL

| Compound | IC50 [1, 7] | IC50 [1, 8] | IC50 [2] | IC50 [3] | IC50 [4] | IC50 [5] | IC50 [6] |
| --- | --- | --- | --- | --- | --- | --- | --- |
| N[C@H](C(=O)N[C@H]1CC[C@@H](CC(=O)O)OB1O)c1ccccc1 [Compound 33, 2-((3R,6S)-3-((S)-2-amino-2-phenylacetamido)-2-hydroxy-1,2-oxaborinan-6-yl)acetic acid] | 1.63 to 6.53 µM | 1.63 to 6.53 µM | > 6.53 µM | 1.63 to 6.53 µM | < 1.63 µM | < 1.63 µM | > 6.53 µM |
| NCCC(=O)N[C@H]1CC[C@@H](CC(=O)O)OB1O [Compound 34, 2-((3R,6S)-3-(3-aminopropanamido)-2-hydroxy-1,2-oxaborinan-6-yl)acetic acid] | 2.05 to 8.19 µM | 2.05 to 8.19 µM | > 8.19 µM | > 8.19 µM | < 2.05 µM | > 8.19 µM | > 8.19 µM |
| N[C@@H](CCC(=O)N[C@H]1CC[C@@H](CC(=O)O)OB1O)C(=O)O [Compound 35, (S)-2-amino-5-((3R,6S)-6-(carboxymethyl)-2-hydroxy-1,2-oxaborinan-3-ylamino)-5-oxopentanoic acid] | > 6.62 µM | > 6.62 µM | > 6.62 µM | > 6.62 µM | < 1.66 µM | > 6.62 µM | > 6.62 µM |
| O=C(O)C[C@@H]1CC[C@H](NC(=O)CCc2ccccc2)B(O)O1 [Compound 38, 2-((3R,6S)-2-hydroxy-3-(3-phenylpropanamido)-1,2-oxaborinan-6-yl)acetic acid] | < 1.64 µM | < 1.64 µM | > 6.55 µM | 1.64 to 6.55 µM | < 1.64 µM | < 1.64 µM | 1.64 to 6.55 µM |
| CSCCC(N)C(=O)N[C@H]1CC[C@@H](CC(=O)O)OB1O (stereo partly drawn) [Compound 41, 2-((3R,6S)-3-(2-amino-4-(methylthio)butanamido)-2-hydroxy-1,2-oxaborinan-6-yl)acetic acid] | < 1.64 µM | < 1.64 µM | > 6.58 µM | > 6.58 µM | < 1.64 µM | > 6.58 µM | > 6.58 µM |
| NC(Cc1cccnc1)C(=O)N[C@H]1CC[C@@H](CC(=O)O)OB1O (stereo partly drawn) [Compound 42, 2-((3R,6S)-3-(2-amino-3-(pyridin-3-yl)propanamido)-2-hydroxy-1,2-oxaborinan-6-yl)acetic acid] | < 1.56 µM | < 1.56 µM | > 6.23 µM | > 6.23 µM | < 1.56 µM | > 6.23 µM | > 6.23 µM |
| O=C(O)C[C@@H]1CC[C@H](NC(=O)Cc2cccnc2)B(O)O1 [Compound 43, 2-((3R,6S)-2-hydroxy-3-(2-(pyridin-3-yl)acetamido)-1,2-oxaborinan-6-yl)acetic acid] | < 1.71 µM | < 1.71 µM | > 6.85 µM | 1.71 to 6.85 µM | < 1.71 µM | 1.71 to 6.85 µM | > 6.85 µM |
| O=C(O)C[C@@H]1CC[C@H](NC(=O)[C@@H]2CCCCN2)B(O)O1 [Compound 45, 2-((3R,6S)-2-hydroxy-3-((S)-piperidine-2-carboxamido)-1,2-oxaborinan-6-yl)acetic acid] | 1.76 to 7.04 µM | 1.76 to 7.04 µM | > 7.04 µM | > 7.04 µM | < 1.76 µM | > 7.04 µM | > 7.04 µM |
| O=C(O)C[C@@H]1CC[C@H](NC(=O)[C@H]2Cc3ccccc3CN2)B(O)O1 [Compound 46, 2-((3R,6S)-2-hydroxy-3-((R)-1,2,3,4-tetrahydroisoquinoline-3-carboxamido)-1,2-oxaborinan-6-yl)acetic acid] | < 1.51 µM | < 1.51 µM | > 6.02 µM | > 6.02 µM | < 1.51 µM | > 6.02 µM | > 6.02 µM |
| N=C(N)NCCC[C@@H](N)C(=O)N[C@H]1CC[C@@H](CC(=O)O)OB1O [Compound 47, 2-((3R,6S)-3-((R)-2-amino-5-guanidinopentanamido)-2-hydroxy-1,2-oxaborinan-6-yl)acetic acid] | 1.52 to 6.08 µM | 1.52 to 6.08 µM | > 6.08 µM | > 6.08 µM | < 1.52 µM | > 6.08 µM | > 6.08 µM |
